Tested on: H9c2 cells
Experiment: Cell viability assay (MTT) of H9c2 cells in hypoxia-reoxygenation model
Assay type: cell-based, rat
Conditions: added 1 hour before hypoxia, 6 h hypoxia, 12 h reoxygenation, compounds 1, 3, 10 μM, metformin 10, 30, 100 μM, compared to the sham group, FIG. 1(b)
Procedure: Cell Viability Assay of H9c2 Cell in Hypoxia-Reoxygenation Model
Rat embryonic ventricular myoblast cell line, H9c2, are cultured in a DMEM medium supplemented with 10% fetal bovine serum (FBS), penicillin (10 U/mL), streptomycin (100 μg/mL) and amphotericin B (0.25 μg/mL) in 37° C. humidified 5% carbon dioxide (CO2) incubator. When the plate becomes confluent, maintain the culture at a 1:4 subculture split.
(1) H9c2 cells are cultured on a 60 mm plate (6×10^5 cells/plate) containing 10% FBS DMEM (high glucose DMEM) for 24 hours. The medium is replaced with DMEM with no serum for the starvation. At the same time, a medium containing DMEM with no glucose and no serum is adjusted to pH 6.8 and placed into a hypoxia chamber (95% N2 and 5% CO2, 37° C.) where the oxygen partial pressure is controlled to be less than 2% for a pretreatment for 24 hours. […]
Please refer to FIGS. 1(a) and 1(b), which are diagrams showing the effects of the compounds in the present invention and metformin on the viability of cells treated by the hypoxia-reoxygenation. The results are represented by the absorbance (OD) values of the hypoxia-reoxygenation treated group (IR OD)/the OD values of the control group (control OD) in FIG. 1(a) and the OD values of the drug-treated group (drug OD)/the OD values of the sham group (sham OD).

COc1cc(/C=C/C(=O)OCC2OC(Oc3ccc(C[C@H]4CO[C@H](c5ccc(O)c(OC)c5)[C@H]4CO)cc3OC)C(O)C(O)C2O)ccc1O (stereo partly drawn) [RS-47, lariciresinol 4′-(6″-O-feruloyl-β-D-glucopyranoside)]
viability of the cells treated with the hypoxia-reoxygenation (drug OD/sham OD): significantly increased

CN(C)C(=N)N=C(N)N [metformin]
viability of the cells treated with the hypoxia-reoxygenation (drug OD/sham OD): significantly increased

Reference: patent US20120283200A1, “PHARMACEUTICAL COMPOSITION AND METHOD FOR PREVENTING OR TREATING CHRONIC HEART DISEASE” (CHINA MEDICAL UNIVERSITY, priority 2011, published 2012)
